In ChEMBL document CHEMBL5033996, “Design, Synthesis, and Bioactivity Evaluation of Dual-Target Inhibitors of Tubulin and Src Kinase Guided by Crystal Structure” (J Med Chem, 2021):
Active and inactive are the calls of the source. No cut-off for these calls is given here.

Assays:
[1] = Antitumor activity against human SK-OV-3 cells xenografted in nude mouse assessed as tumor growth inhibition at 10 mg/kg, po measured every 3 days for 1 month by vernier caliper analysis relative to control; type: functional; details: SK-OV-3, po, 730 h, time 1 months, read-out: TGI
[2] = test system: K562; test: Antiproliferative activity against human K562 cells assessed as inhibition of cell proliferation measured after 72 hrs by MTT assay; type: functional, cell-based; details: K562, 72 h
[3] = test system: SK-OV-3; test: Antiproliferative activity against human SK-OV-3 cells assessed as inhibition of cell proliferation measured after 72 hrs by MTT assay; type: functional, cell-based; details: SK-OV-3, 72 h
[4] = test system: Ramos; test: Antiproliferative activity against human Ramos cells assessed as inhibition of cell proliferation measured after 72 hrs by MTT assay; type: functional, cell-based
[5] = Half life in human liver microsomes; type: ADME, Microsome
[6] = Intrinsic clearance in human liver microsomes; type: ADME, Microsome
[7] = biological target: Tubulin; test: Binding affinity to tubulin (unknown origin) assessed as dissociation constant by tryptophan based binding assay; type: protein-complex assay, Homo sapiens
[8] = AUC (0 to t) in Sprague-Dawley rat at 5 mg/kg, po measured up to 24 hrs by LC/MS/MS analysis; type: ADME, organism-based; design: route oral, dose 5 mg/kg, time <=24; details: in vivo
[9] = Half life in Sprague-Dawley rat at 5 mg/kg, po measured up to 24 hrs by LC/MS/MS analysis; type: ADME, organism-based; details: in vivo
[10] = Tmax in Sprague-Dawley rat at 5 mg/kg, po measured up to 24 hrs by LC/MS/MS analysis; type: ADME, organism-based; details: in vivo
[11] = Cmax in Sprague-Dawley rat at 5 mg/kg, po measured up to 24 hrs by LC/MS/MS analysis; type: ADME, organism-based; design: route oral, dose 5 mg/kg, time <=24; details: in vivo
[12] = Clearance in Sprague-Dawley rat at 5 mg/kg, po measured up to 24 hrs by LC/MS/MS analysis; type: ADME, organism-based; details: in vivo
[13] = Oral bioavailability in Sprague-Dawley rat at 5 mg/kg measured up to 24 hrs by LC/MS/MS analysis; type: ADME, organism-based; details: in vivo
[14] = Antitumor activity against mouse C26 cells xenografted in BALB/c mouse assessed as tumor growth inhibition at 10 mg/kg, po measured every 2 days for 10 days by vernier caliper analysis relative to control; type: functional; details: 240 h, time 10 day, read-out: TGI
[15] = Antitumor activity against human SK-OV-3 cells xenografted in nude mouse assessed as tumor growth inhibition at 5 mg/kg, po measured every 3 days for 1 month by vernier caliper analysis relative to control; type: functional; details: SK-OV-3, po, 730 h, time 1 months, read-out: TGI
[16] = Toxicity in mouse xenografted with human SK-OV-3 cells assessed as effect on body weight at 10 mg/kg, po administered for 30 days; type: organism-based; details: in vivo, 720 h, time 30 day
[17] = Toxicity in mouse xenografted with human SK-OV-3 cells assessed as effect on body weight at 5 mg/kg, po administered for 30 days; type: organism-based; details: in vivo, 720 h, time 30 day
[18] = biological target: Tubulin (Homo sapiens) (UniProt P68371+Q9H4B7+P0DPH7+P68366+Q13509+Q71U36+P04350+Q3ZCM7+P07437+P68363+Q9BQE3+Q6PEY2+Q13885+Q9BVA1+Q9BUF5); test: Inhibition of tubulin polymerization in human SK-OV-3 cells at 5 uM incubated for 16 hrs by fluorescence microscopic analysis; type: cell-based
[19] = test system: SK-OV-3; test: Induction of cell cycle arrest in human SK-OV-3 cells assessed as accumulation of cells at G0/G1 phase at 1 nM incubated for 24 hrs by PI staining based flow cytometry analysis (Rvb= 49.60%); type: functional
[20] = test system: SK-OV-3; test: Induction of cell cycle arrest in human SK-OV-3 cells assessed as accumulation of cells at G2/M phase at 1 nM incubated for 24 hrs by PI staining based flow cytometry analysis (reference value: 28.94%); type: functional
[21] = test system: SK-OV-3; test: Induction of cell cycle arrest in human SK-OV-3 cells assessed as accumulation of cells at S phase at 1 nM incubated for 24 hrs by PI staining based flow cytometry analysis (reference value: 21.4 %); type: functional
[22] = test system: SK-OV-3; test: Induction of cell cycle arrest in human SK-OV-3 cells assessed as accumulation of cells at G0/G1 phase at 5 nM incubated for 24 hrs by PI staining based flow cytometry analysis (reference value: 49.60 %); type: functional
[23] = test system: SK-OV-3; test: Induction of cell cycle arrest in human SK-OV-3 cells assessed as accumulation od cells at G2/M phase at 5 nM incubated for 24 hrs by PI staining based flow cytometry analysis (reference value: 28.94%); type: functional
[24] = test system: SK-OV-3; test: Induction of cell cycle arrest in human SK-OV-3 cells assessed as accumulation of cells at S phase at 5 nM incubated for 24 hrs by PI staining based flow cytometry analysis (reference value: 21.4 %); type: functional
[25] = test system: SK-OV-3; test: Induction of cell cycle arrest in human SK-OV-3 cells assessed as accumulation of cells at G0/G1 phase at 10 nM incubated for 24 hrs by PI staining based flow cytometry analysis (reference value: 49.60 %); type: functional
[26] = test system: SK-OV-3; test: Induction of cell cycle arrest in human SK-OV-3 cells assessed as accumulation of cells at G2/M phase at 10 nM incubated for 24 hrs by PI staining based flow cytometry analysis (reference value: 28.94%); type: functional
[27] = test system: SK-OV-3; test: Induction of cell cycle arrest in human SK-OV-3 cells assessed as accumulation of cells at S phase at 10 nM incubated for 24 hrs by PI staining based flow cytometry analysis (reference value: 21.4 %); type: functional
[28] = test system: SK-OV-3; test: Induction of mitotic block in human SK-OV-3 cells at 10 to 30 nM in presence of colchicine measured immediately by flow cytometry analysis; type: functional, cell-based; details: dose 10-30 nM
[29] = test system: SK-OV-3; test: Induction of mitotic block in human SK-OV-3 cells at 300 nM measured after 10 hrs by flow cytometry analysis; type: functional, cell-based
[30] = biological target: Proto-oncogene tyrosine-protein kinase Src (Homo sapiens) (UniProt P12931); test: Inhibition of Src kinase phosphorylation at Tyr416/419 residue in human SK-OV-3 cells incubated for 24 hrs by Western blot analysis; type: cell-based
[31] = biological target: Focal adhesion kinase 1 (Homo sapiens) (UniProt Q05397); test: Inhibition of FAK phosphorylation at […] residue in human SK-OV-3 cells incubated for 24 hrs by Western blot analysis; type: cell-based
[32] = Toxicity in C57 mouse at 40 mg/kg, po administered twice daily; type: organism-based; details: in vivo
[33] = test system: SK-OV-3; test: Induction of cell cycle arrest in human SK-OV-3 cells assessed as accumulation of cells at G0/G1 phase at 20 nM incubated for 24 hrs by PI staining based flow cytometry analysis (reference value: 49.60 %); type: functional
[34] = test system: SK-OV-3; test: Induction of cell cycle arrest in human SK-OV-3 cells assessed as accumulation of cells at G2/M phase at 20 nM incubated for 24 hrs by PI staining based flow cytometry analysis (reference value: 28.94%); type: functional
[35] = test system: SK-OV-3; test: Induction of cell cycle arrest in human SK-OV-3 cells assessed as accumulation of cells at S phase at 20 nM incubated for 24 hrs by PI staining based flow cytometry analysis (reference value: 21.4 %); type: functional
[36] = test system: SK-OV-3; test: Induction of cell cycle arrest in human SK-OV-3 cells assessed as accumulation of cells at G0/G1 phase at 100 nM incubated for 24 hrs by PI staining based flow cytometry analysis (reference value: 49.60 %); type: functional
[37] = test system: SK-OV-3; test: Induction of cell cycle arrest in human SK-OV-3 cells assessed as accumulation of cells at G2/M phase at 100 nM incubated for 24 hrs by PI staining based flow cytometry analysis (reference value: 28.94%); type: functional
[38] = test system: SK-OV-3; test: Induction of cell cycle arrest in human SK-OV-3 cells assessed as accumulation of cells at S phase at 100 nM incubated for 24 hrs by PI staining based flow cytometry analysis (reference value: 21.4 %); type: functional
[39] = Toxicity in BALB/c mouse xenografted with mouse C26 cells assessed as death at 10 mg/kg, po measured every 2 days for 10 days; type: organism-based; details: in vivo, 240 h, time 10 day
[40] = Toxicity in C57 mouse at 10 mg/kg, po administered twice daily; type: organism-based; details: in vivo

Sequence of Proto-oncogene tyrosine-protein kinase Src (Homo sapiens) (P12931 2-536 limits assumed): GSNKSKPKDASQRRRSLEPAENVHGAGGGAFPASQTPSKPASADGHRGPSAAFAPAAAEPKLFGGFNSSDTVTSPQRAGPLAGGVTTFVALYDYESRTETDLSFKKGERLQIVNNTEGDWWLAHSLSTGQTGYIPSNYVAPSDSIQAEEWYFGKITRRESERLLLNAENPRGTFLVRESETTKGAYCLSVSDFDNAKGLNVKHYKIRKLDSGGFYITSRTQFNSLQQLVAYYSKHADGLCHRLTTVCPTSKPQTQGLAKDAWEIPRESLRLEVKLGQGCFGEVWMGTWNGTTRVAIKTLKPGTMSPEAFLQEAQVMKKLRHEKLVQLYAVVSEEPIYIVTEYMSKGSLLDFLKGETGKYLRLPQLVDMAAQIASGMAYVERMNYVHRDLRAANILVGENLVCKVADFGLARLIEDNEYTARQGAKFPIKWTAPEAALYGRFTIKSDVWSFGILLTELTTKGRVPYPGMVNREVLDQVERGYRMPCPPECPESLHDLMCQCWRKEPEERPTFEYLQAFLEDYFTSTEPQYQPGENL
Sequence of Focal adhesion kinase 1 (Homo sapiens) (Q05397 2-1052 limits assumed): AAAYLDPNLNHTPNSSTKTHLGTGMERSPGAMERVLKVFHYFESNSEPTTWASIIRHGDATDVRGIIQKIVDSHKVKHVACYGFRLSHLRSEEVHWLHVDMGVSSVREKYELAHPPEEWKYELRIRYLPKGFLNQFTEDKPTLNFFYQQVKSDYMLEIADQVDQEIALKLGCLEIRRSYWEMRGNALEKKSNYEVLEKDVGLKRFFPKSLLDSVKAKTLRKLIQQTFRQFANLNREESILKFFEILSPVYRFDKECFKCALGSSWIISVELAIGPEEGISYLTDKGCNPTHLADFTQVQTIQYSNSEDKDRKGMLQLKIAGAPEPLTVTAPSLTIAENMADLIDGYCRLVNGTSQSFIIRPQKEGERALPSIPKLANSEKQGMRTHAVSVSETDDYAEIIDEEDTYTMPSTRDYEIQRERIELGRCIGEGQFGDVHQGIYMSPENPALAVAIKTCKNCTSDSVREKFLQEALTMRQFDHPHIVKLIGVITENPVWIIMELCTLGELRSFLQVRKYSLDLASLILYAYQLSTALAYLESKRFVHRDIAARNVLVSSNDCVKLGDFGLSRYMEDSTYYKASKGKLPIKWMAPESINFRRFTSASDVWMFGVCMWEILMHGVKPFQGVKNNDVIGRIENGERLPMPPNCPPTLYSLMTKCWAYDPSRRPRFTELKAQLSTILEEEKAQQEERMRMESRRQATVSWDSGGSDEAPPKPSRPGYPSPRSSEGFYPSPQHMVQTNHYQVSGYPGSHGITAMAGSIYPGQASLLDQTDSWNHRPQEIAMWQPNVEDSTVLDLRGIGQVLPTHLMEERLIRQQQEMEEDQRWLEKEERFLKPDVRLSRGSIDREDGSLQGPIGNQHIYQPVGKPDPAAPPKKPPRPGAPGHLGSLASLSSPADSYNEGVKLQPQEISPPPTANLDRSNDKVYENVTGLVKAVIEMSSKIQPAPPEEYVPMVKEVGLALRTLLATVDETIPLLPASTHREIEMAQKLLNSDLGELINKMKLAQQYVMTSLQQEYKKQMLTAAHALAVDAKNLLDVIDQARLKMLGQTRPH

SMILES	inhibition in vivo at 10 mg/kg [1] [%]	IC50 [2] [nM]	IC50 [3] [nM]	IC50 [4] [nM]	half-life [5] [min]	CLH [6] [mL·min/g]	Kd [7] [nM]	AUC(0-t) at 24 h [8] [ng·h/mL]	half-life [9] [min]	Tmax [10] [min]	Cmax [11] [ng/mL]	CL/F [12] [mL/min/kg]	bioavailability [13] [%]	inhibition in vivo at 10 mg/kg [14] [%]	Activity [16]	Activity [25] [%]	Activity [26] [%]	Activity [27] [%]	inhibition [30]	inhibition [31]	also measured
O=C(Cc1ccc(-c2ccc(OCCN3CCN(C(=O)CC4CC4)CC3)cc2)cn1)NCc1ccccc1	70	1	0.61	1.4	27.8	49.8	610	1050	231	19.8	398	80.2	24.3	71	Non-Toxic	12.1	72.04	15.86	Dose-Dependent Effect	Dose-Dependent Effect	inhibition in vivo at 5 mg/kg [15]: 52%; Activity [17]: Non-Toxic; inhibition [18]: Active; Activity [19]: 45.93%; Activity [20]: 32.11%; Activity [21]: 21.96%; Activity [22]: 39.12%; Activity [23]: 39.47%; Activity [24]: 21.42%; Activity [28]: Active; Activity [29]: Active; Activity [32]: Non-Toxic
O=C(Cc1ccc(-c2ccc(OCCN3CCOCC3)cc2)cn1)NCc1ccccc1 [TIRBANIBULIN]	42	18.2	6.8	15.7	44.1	31.4	1110	840	740	15	431	88.5	34.9	51	Non-Toxic	46.66	34.01	19.33	–	–	Activity [33]: 40.07%; Activity [34]: 40.35%; Activity [35]: 19.58%; Activity [36]: 15.39%; Activity [37]: 64.41%; Activity [38]: 20.2%
O=C(Cc1ccc(-c2ccc(OCCN3CCN(C(=O)C4CC4)CC3)cc2)cn1)NCc1ccccc1	–	2.5	1.1	1.3	38.5	36	290	1620	158	49.8	593	55.7	52.2	73	–	–	–	–	Dose-Dependent Effect	Dose-Dependent Effect	Activity [32]: Non-Toxic; Activity [39]: Toxic
O=C(Cc1ccc(-c2ccc(OCCN3CCN(C(=O)[C@@H]4C[C@@H]4F)CC3)cc2)cn1)NCc1ccccc1	–	1.4	0.6	1.6	52.1	26.6	300	4180	305	42	742	25.8	79.9	–	–	–	–	–	Dose-Dependent Effect	Dose-Dependent Effect	Activity [40]: Toxic
